Assay results published in ChEMBL document CHEMBL5465560, “Selectivity Literature for EUbOPEN Chemogenomic Library” (2024).

Key:
[1] = molecular target: Tyrosine-protein kinase Lck (Homo sapiens, UniProt P06239); test: Selectivity interaction (Enzymatic assay) EUB0001199aCl LCK
[2] = molecular target: Mitogen-activated protein kinase 8 (Homo sapiens, UniProt P45983); test: Selectivity interaction (KinomeScan (DiscoverX)) EUB0001079a MAPK8; conditions: at 1 µM
[3] = molecular target: Vascular endothelial growth factor receptor 2 (Homo sapiens, UniProt P35968); test: Selectivity interaction (KinomeScan (DiscoverX)) EUB0000607a KDR; conditions: at 10 µM
Vascular endothelial growth factor receptor 2, sequence (P35968 whole entry): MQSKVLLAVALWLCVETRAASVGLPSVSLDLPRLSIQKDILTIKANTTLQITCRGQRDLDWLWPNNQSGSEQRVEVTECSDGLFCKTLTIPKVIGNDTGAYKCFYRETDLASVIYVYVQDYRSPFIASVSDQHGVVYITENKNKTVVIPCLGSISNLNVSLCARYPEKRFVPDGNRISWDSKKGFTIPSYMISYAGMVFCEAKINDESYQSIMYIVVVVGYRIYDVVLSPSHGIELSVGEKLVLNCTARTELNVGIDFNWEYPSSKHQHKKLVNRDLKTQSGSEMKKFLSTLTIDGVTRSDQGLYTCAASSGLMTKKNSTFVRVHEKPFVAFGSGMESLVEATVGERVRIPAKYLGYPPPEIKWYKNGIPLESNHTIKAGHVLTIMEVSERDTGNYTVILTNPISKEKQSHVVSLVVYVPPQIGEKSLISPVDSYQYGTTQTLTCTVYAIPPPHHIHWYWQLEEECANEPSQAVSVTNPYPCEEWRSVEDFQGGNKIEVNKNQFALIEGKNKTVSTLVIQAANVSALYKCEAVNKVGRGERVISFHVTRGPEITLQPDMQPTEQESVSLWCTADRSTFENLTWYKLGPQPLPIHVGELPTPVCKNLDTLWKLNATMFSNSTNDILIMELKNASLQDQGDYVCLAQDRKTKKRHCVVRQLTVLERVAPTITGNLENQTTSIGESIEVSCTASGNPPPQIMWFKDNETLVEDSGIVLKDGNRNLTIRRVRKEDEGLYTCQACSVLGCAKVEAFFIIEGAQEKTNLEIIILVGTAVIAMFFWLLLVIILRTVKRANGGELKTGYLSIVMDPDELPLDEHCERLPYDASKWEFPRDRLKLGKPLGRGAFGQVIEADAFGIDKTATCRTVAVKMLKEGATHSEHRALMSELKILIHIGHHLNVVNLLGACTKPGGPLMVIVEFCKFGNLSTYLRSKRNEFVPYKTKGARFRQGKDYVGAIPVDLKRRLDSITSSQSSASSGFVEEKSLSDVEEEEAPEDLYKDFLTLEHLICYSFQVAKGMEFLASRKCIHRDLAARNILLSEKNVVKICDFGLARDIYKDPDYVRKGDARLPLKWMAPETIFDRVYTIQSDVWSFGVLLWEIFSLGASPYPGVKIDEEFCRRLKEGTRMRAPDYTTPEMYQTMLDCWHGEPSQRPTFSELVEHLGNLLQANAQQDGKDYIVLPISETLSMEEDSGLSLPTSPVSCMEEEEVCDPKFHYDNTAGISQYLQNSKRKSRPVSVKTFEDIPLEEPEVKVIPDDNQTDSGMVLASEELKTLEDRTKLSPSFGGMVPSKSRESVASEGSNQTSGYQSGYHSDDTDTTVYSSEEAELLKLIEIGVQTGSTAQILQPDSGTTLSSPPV

[4] = molecular target: T1, Tyrosine-protein kinase ITK/TSK (Homo sapiens) (UniProt Q08881); test: Selectivity interaction (KinomeScan (DiscoverX)) EUB0001619a ITK; conditions: at 1 µM
T1 sequence (whole entry): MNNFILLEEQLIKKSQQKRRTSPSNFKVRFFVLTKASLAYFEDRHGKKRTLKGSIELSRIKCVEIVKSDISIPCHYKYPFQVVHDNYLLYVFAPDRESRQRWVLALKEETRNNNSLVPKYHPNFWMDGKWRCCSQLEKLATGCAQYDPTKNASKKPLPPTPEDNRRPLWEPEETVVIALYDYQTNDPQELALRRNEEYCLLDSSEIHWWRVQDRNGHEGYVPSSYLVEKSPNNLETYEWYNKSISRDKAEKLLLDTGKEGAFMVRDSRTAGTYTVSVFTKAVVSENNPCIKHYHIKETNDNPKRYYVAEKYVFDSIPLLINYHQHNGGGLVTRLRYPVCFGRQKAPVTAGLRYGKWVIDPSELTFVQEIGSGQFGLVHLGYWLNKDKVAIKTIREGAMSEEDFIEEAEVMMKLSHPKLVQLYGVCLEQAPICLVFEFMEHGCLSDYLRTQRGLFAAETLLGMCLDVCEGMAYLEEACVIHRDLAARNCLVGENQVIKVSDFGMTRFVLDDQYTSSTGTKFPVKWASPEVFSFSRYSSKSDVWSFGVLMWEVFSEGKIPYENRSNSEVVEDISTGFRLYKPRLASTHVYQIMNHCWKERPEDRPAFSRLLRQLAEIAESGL

[5] = molecular target: T2, Tyrosine-protein kinase JAK3 (Homo sapiens) (UniProt P52333); test: Selectivity interaction (Antiproliferative activity against Tel-kinase transformed Ba/F3 cell line) EUB0000045b JAK3; type: cell-based; conditions: BaF3
T2 sequence (whole entry): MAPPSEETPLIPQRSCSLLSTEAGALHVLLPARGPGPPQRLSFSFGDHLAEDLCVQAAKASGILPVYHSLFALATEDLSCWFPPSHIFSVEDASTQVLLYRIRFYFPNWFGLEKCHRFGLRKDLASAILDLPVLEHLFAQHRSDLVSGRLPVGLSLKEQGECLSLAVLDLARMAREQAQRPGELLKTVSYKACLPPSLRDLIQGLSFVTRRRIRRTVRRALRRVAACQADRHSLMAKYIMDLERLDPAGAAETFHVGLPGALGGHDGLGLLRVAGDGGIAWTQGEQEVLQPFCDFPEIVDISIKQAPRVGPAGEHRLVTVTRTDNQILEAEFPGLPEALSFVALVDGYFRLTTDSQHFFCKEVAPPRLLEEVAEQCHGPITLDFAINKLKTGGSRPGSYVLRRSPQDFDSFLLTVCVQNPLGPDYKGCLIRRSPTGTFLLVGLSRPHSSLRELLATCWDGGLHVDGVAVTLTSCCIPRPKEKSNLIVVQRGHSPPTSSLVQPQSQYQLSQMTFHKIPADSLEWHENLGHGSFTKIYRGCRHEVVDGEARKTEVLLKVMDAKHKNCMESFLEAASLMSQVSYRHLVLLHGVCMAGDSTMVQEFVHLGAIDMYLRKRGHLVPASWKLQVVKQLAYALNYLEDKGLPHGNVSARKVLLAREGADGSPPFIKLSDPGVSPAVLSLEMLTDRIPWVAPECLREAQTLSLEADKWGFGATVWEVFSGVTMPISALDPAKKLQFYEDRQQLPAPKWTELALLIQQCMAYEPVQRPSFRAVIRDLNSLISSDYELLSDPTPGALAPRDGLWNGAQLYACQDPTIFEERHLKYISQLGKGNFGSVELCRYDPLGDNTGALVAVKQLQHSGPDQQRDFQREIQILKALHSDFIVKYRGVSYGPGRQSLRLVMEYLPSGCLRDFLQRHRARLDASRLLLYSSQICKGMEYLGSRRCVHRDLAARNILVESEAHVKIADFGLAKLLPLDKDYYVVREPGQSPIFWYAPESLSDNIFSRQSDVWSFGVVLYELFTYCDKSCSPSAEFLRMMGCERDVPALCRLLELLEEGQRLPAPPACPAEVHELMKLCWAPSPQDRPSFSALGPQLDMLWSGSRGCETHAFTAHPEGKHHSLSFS

[6] = molecular target: Ribosomal protein S6 kinase alpha-1 (Homo sapiens, UniProt Q15418); test: Selectivity interaction (Kinase panel (Invitrogen)) EUB0000639a RPS6KA1; conditions: at 200 nM
Ribosomal protein S6 kinase alpha-1, sequence (Q15418 whole entry): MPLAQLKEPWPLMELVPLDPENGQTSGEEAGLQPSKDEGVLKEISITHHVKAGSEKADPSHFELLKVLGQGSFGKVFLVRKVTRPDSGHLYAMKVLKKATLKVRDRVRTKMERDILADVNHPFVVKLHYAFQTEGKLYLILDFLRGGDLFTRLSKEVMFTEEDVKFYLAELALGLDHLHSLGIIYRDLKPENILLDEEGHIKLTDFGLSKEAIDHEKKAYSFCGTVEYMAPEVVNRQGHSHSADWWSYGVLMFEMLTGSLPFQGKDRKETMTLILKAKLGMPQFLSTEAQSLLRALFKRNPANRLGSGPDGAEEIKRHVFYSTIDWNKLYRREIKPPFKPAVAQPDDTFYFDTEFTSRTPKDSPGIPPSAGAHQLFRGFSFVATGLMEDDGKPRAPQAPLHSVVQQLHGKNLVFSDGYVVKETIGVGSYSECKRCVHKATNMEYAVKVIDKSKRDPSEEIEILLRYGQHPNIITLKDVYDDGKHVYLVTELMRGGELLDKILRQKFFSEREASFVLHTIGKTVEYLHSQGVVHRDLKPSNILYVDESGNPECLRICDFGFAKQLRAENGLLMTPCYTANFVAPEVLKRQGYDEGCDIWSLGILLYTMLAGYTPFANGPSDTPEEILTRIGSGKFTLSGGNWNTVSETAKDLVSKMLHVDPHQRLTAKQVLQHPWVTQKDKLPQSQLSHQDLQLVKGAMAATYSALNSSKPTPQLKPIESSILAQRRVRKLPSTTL

[7] = molecular target: Dual specificity tyrosine-phosphorylation-regulated kinase 1B (Homo sapiens, UniProt Q9Y463); test: Selectivity interaction (KinomeScan (DiscoverX)) EUB0001049a DYRK1B; conditions: at 1 µM
Dual specificity tyrosine-phosphorylation-regulated kinase 1B, sequence (Q9Y463 whole entry, looked up): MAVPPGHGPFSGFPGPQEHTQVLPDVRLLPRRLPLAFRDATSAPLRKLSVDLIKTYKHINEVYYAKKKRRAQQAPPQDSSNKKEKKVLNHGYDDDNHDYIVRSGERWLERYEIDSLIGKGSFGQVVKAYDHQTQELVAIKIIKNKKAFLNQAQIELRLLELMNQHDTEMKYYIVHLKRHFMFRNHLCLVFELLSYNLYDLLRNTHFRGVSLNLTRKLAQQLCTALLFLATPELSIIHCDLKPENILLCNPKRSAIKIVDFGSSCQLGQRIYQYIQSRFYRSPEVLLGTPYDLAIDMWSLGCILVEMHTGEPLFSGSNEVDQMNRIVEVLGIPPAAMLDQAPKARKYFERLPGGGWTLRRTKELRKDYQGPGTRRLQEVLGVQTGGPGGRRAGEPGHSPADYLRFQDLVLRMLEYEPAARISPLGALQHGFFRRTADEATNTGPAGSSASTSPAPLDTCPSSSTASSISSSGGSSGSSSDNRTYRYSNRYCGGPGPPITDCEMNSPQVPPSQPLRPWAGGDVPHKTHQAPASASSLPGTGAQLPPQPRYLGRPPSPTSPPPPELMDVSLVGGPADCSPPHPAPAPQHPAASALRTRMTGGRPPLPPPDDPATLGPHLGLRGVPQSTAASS

[8] = molecular target: BMP-2-inducible protein kinase (Homo sapiens) (UniProt Q9NSY1); test: Selectivity interaction (KinomeScan (DiscoverX)) EUB0000666a BMP2K; conditions: at 10 µM
[9] = molecular target: Mitogen-activated protein kinase kinase kinase 10 (Homo sapiens) (UniProt Q02779); test: Selectivity interaction (KinomeScan (DiscoverX)) EUB0000666a MAP3K10; conditions: at 10 µM
Mitogen-activated protein kinase kinase kinase 10 (Homo sapiens), sequence (Q02779 whole entry, looked up): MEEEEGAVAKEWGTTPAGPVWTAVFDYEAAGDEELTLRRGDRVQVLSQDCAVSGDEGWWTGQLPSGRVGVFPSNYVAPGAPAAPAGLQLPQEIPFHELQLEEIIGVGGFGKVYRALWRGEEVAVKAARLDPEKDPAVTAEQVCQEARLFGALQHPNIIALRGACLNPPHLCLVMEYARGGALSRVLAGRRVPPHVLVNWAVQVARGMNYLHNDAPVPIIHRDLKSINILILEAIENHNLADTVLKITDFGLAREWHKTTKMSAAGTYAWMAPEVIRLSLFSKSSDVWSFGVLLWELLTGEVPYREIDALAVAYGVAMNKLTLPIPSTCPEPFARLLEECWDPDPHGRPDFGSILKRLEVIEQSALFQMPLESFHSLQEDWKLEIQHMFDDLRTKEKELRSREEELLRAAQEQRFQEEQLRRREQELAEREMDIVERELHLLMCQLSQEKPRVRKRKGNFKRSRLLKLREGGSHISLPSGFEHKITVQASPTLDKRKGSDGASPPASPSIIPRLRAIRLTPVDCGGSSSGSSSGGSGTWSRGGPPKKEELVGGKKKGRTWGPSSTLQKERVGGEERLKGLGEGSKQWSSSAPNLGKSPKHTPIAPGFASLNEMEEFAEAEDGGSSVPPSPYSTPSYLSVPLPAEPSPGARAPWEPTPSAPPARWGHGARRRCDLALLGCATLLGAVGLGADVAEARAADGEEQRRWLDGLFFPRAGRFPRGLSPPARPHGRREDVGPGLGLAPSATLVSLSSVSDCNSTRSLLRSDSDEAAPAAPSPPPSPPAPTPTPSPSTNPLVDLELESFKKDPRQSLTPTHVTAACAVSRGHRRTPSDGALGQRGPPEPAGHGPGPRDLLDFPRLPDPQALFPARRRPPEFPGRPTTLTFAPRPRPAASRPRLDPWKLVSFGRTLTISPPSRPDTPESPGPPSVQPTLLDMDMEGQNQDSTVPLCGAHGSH

[10] = molecular target: Mitogen-activated protein kinase 14 (Homo sapiens, UniProt Q16539); test: Selectivity interaction (KinomeScan (DiscoverX)) EUB0000092b MAPK14; conditions: at 10 µM
Mitogen-activated protein kinase 14, sequence (Q16539 whole entry): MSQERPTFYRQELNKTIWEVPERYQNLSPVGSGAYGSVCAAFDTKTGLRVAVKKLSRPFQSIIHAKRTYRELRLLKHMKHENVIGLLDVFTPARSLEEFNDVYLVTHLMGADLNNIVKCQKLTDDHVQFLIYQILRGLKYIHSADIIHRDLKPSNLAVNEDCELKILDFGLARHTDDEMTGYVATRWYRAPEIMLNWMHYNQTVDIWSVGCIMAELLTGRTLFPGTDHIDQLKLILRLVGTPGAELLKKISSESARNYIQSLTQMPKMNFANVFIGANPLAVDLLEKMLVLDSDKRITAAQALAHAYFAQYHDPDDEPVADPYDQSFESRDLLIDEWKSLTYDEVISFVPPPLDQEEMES

[11] = molecular target: T2, Tyrosine-protein kinase JAK3 (Homo sapiens); test: Selectivity interaction (KinomeScan (DiscoverX)) EUB0000092b JAK3; conditions: at 10 µM
[12] = molecular target: Ribosomal protein S6 kinase beta-2 (Homo sapiens) (UniProt Q9UBS0); test: Selectivity interaction (Kinase panel (Z-LYTE Assay)) EUB0001632a RPS6KB2; conditions: at 10 µM
Ribosomal protein S6 kinase beta-2 (Homo sapiens), sequence (Q9UBS0 whole entry): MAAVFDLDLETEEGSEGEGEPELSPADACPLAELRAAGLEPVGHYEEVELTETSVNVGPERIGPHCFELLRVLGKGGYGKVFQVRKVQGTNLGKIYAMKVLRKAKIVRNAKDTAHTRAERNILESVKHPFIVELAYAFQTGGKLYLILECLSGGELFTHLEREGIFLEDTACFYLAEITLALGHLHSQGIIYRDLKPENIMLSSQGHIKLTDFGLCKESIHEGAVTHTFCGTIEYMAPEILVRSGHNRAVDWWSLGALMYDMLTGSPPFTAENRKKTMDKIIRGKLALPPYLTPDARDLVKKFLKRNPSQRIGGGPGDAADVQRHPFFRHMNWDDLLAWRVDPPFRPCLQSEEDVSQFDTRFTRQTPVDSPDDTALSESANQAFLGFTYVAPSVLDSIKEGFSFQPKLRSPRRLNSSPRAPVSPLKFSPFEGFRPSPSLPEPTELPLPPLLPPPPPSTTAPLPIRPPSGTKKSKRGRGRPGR

[13] = molecular target: T3, Phosphatidylinositol 5-phosphate 4-kinase type-2 beta (Homo sapiens) (UniProt P78356); test: Selectivity interaction (KinomeScan (DiscoverX)) EUB0000695a PIP4K2B; conditions: at 100 nM
T3 sequence (whole entry): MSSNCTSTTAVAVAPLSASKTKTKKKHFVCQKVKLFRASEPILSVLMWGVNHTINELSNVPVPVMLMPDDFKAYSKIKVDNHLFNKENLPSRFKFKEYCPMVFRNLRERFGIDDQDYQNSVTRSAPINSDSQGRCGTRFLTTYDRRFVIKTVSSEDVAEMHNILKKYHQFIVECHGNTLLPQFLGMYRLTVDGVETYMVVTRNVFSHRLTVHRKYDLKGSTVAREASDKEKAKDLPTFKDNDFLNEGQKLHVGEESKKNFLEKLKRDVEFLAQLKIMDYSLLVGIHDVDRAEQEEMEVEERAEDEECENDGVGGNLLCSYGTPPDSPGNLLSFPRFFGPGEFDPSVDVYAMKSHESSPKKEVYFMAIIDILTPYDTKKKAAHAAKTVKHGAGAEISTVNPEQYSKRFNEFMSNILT

Tyrosine-protein kinase Lck, sequence (P06239 whole entry): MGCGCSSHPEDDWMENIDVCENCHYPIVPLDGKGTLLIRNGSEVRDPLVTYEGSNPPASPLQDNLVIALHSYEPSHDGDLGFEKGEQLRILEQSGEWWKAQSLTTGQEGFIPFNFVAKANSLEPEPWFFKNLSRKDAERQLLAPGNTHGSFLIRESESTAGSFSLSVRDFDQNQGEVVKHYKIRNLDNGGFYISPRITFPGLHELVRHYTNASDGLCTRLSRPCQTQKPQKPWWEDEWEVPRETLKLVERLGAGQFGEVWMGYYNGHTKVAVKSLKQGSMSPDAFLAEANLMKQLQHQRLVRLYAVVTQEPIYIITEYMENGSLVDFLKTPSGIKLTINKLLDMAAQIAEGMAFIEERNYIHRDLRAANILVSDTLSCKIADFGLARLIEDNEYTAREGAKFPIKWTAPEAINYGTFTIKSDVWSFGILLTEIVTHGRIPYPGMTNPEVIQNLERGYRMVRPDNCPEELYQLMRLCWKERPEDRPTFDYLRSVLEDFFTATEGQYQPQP

## CN1Cc2nccc(-c3cn(C)nc3-c3ccc(F)cc3)c2C1=O
[1]
  IC50: 10.2 µM

## Nc1cnc(N2CCc3cc(S(=O)(=O)Nc4c(F)cc(Cl)cc4F)cc(N4CCCC4=O)c32)nc1 [TP-020n]
[2]
  % of control: 78%

## CNC(=O)Nc1ccc(-c2nc(N3CC4CCC(C3)O4)c3cnn(C4CCC5(CC4)OCCO5)c3n2)cc1
[3]
  % of control: 76%

## N#Cc1cccc(-c2c[nH]c3ncnc(N4CCOCC4)c23)c1
[4]
  % of control: 100%

## C=CC(=O)Nc1cc(-n2c(=O)ccc3cnc4ccc(-c5ccc(NS(C)(=O)=O)cc5)cc4c32)ccc1C
[5]
  GIC50: 7.98 µM

## CC[C@@H]1[C@H](F)C(=O)N[C@@H]1COc1nccc2cc(C(N)=O)c(OC)cc12 [ZIMLOVISERTIB]
[6]
  % of inhibition: 2.83%

## COc1cc(Nc2nc(C)cc(-c3cnn4nc(OC)ccc34)n2)cc(C(F)(F)F)c1
[7]
  % of control: 100%

## O=C(NOC[C@H](O)CO)c1ccc(F)c(F)c1Nc1ccc(I)cc1F
[8]
  % of control: 91%
[9]
  % of control: 100%

## CCC(=O)N1CCN(c2ccc(-n3c(=O)ccc4cnc5ccc(-c6cnc7ccccc7c6)cc5c43)cc2C(F)(F)F)CC1
[10]
  % of control: 90%
[11]
  % of control: 100%

## Cn1cc(-n2cnc3c(NCc4nc5cc(Cl)c(Cl)cc5[nH]4)nc(N4CCOCC4)nc32)cn1
[12]
  % of control: 3.53%

## Cc1cc(F)c(C(=O)Nc2cccc(-c3nncn3C(C)C)n2)cc1-n1cnc(C2CC2)c1
[13]
  % of control: 92%
